Assays:
[1] = test system: Wnt/β-catenin signaling pathway; assay: Topflash/Fopflash luciferase report assay in SW480 cells; assay type: cell-based; conditions: 30 μM
Text: We synthesized derivatives 5–10 bearing 5-membered and 6-membered heterocyclic rings at the position 3′ or 4′ of the B phenyl ring. […] SW480 cells show higher Wnt activation compared to HCT116 cells.[28] […] In SW480 cells, compounds 5–10 were in the 1.75%(10)–7.32%(7) range of residual luciferase activity, except 6(28.46%), compared to 3(21.61%); in HCT116 cells, compounds 5–10 were in the 0.37%(7)–5.88%(5) range, compared to 3 (18.75%) (Table 1 and Figure 5).
Figure 5 Residual luciferase activity (%) by compounds 5–10 and reference compound 3 in SW480 cells (left panel) and HCT116 cells (right panel). Data are represented as the mean ± SD of three independent experiments, each performed in triplicate.
Briefly, the Topflash plasmid (Beyotime, Zhejiang, China) contains 7 TCF/LEF binding sites, while the Fopflash plasmid (Beyotime, Zhejiang, China) contains 6 mutated TCF/LEF binding sites, which are located in the upstream of the luciferase reporter. SW480 and HCT116 cell lines were cultured in 90% DMEM (HyClone, #SH30243.01) plus 10% fetal bovine serum (Gibco, #10270) and plasmocin (mpp-39-03, InvivoGen), respectively. The Topflash/Fopflash vector and plasmid pTK-renilla together were co-transfected to the cells. […] The Dual-Glo luciferase assay kit (Promega, #E1910) was used to measure the luminescence intensity (Figure 2).

Myc = Myc and β-catenin expression (western blot, qPCR) in LiCl-treated HCT116 cells; assay type: cell-based, human; conditions: HCT116, LiCl 50 mM, 24 h
Experimental: To this end, HCT116 cells were treated for 24 h with 50 mM LiCl and increasing concentrations (10–50–100 μM) of the two compounds.
Figure 7 Top panels. […] Vinculin was used as a loading control. […] Bottom panels. c-Myc mRNA levels were measured by qPCR and normalized to the expression of β-actin mRNA and expressed as fold change relative to the control sample. Results represent the mean ± SD of three independent experiments, each performed in triplicate. **p < 0.01, ***p < 0.001 as determined by ANOVA.
Briefly, total proteins from the cells in each group were subjected to 12% denaturing sodium dodecyl sulfate-polyacrylamide gel electrophoresis (SDS-PAGE). The proteins were then transferred onto a poly(vinylidene fluoride) (PVDF) membrane (Millipore). […] After the membrane was fully washed, it was incubated with secondary antibodies at 37 °C for 45 min goat anti-rabbit IgG H&L (HRP) (ab97051), Abcam, MA. The membrane was washed with Tris-buffered saline/Tween-20 (TBST) 4 times at room temperature for 14 min each time. Next, the samples were exposed and imaged (Sigma-Aldrich Chemical) using the enhanced chemiluminescence (ECL) method (Pierce Biotechnology).

SW620 cells = assay: Inhibition of SW620 cells; assay type: cell-based; conditions: Homo sapiens, SW-620, in the combination 9 at constant 0.25 μM
HCT116 xenograft = assay: In vivo HCT116 xenograft tumor growth inhibition; parameters: species or system BALB/C^nu/nu mice
Experimental: Ten-week-old female BALB/C^nu/nu mice were inoculated subcutaneously with HCT116 cells (1 × 10^8 cells/mL) at the logarithmic growth phase. Compound 9 (100 μL, 25 mg/kg) was administered through an intraperitoneal injection every 2 days after tumorigenesis. Mice were euthanized on day 30, and tumors on the backs were collected for the measurement of tumor volume and weight.
Figure 12 Compound 9 inhibited the in vivo tumorigenicity of human colorectal cancer line HCT116. (A) Tumor tissues. (B) Top panel. The volume of tumors originating. *p < 0.05 vs. the control group; t-test; n = 4. (B) Bottom panel. The weight of tumors originating. *p < 0.05 vs. the control group; t-test; n = 4. […] Magnification 200×.
Nuclear protein Ki67 is a proliferation marker of tumor cell proliferation and is an indicator in cancer diagnosis through a biopsy.[38] CD31 is a marker of angiogenesis, along with the vascular endothelial growth factor (VEGF).[39] CD31 has been found in the angiogenetic early breast cancer tissues and is highly expressed on the surface of endothelial cells.[40]
Briefly, all 10-week-old female BALB/C^nu/nu mice (8 mice) were purchased from the Shanghai University of Traditional Chinese Medicine with Institutional Animal Care and Use Committee approval in accordance with institutional guidelines. All mice were randomly divided into […]. In the #1 group (4 mice), 1 × 10^8 cells/mL from HCT116 at the logarithmic growth phase were harvested and inoculated subcutaneously into BALB/C^nu/nu mice and intraperitoneally injected with 100 μL of compound 9 (25 mg/kg) every 2 days after tumorigenesis. In the #2 group (4 mice), 1 × 10^8 cells/mL from […] at the logarithmic growth phase were harvested and inoculated subcutaneously into BALB/C^nu/nu mice and intraperitoneally injected 100 μL of saline every 2 days after tumorigenesis. After continuous feeding for 30 days, the mice were sacrificed, and the tumors were removed. The tumors were weighed, and the volumes were calculated using the following formula: tumor volume (cm^3) = (ab^2)/2 (a: the longest axis (cm), b: the shortest axis (cm))
Briefly, fresh tissues were immersed in 4% paraformaldehyde (Sigma-Aldrich) for fixation at room temperature for 30 min. The tissues were then dehydrated in an ethanol gradient, embedded in paraffin, sectioned (thickness: 6 μm), and immersed in xylene for dewaxing. Tissue sections were blocked with an immunohistochemical blocking solution (Beyotime Biotechnology Co., Ltd., Zhejiang, China) at 37 °C for 30 min. The blocking solution was then discarded, and the sections were washed 3 times at room temperature for 5 min each with an immunohistochemical washing solution (Beyotime Biotechnology). […]

[2] = 25 mg/kg i.p. every 2 days, day 30
[3] = immunofluorescence staining, 25 mg/kg i.p.

Structure (SMILES): O=S(=O)(Nc1ccc(-c2ccccn2)cc1)c1ccc(Br)cc1 [Compound 9, 4-Bromo-N-(4-(pyridin-2-yl)phenyl)benzenesulfonamide]
- % Luciferase Activity SW480 (residual) [1]: 8.75%
- inhibition of Myc expression (Myc; 10 μM): about 2.5 fold
- protein and mRNA levels of Myc (Myc; 10–50–100 μM): significant dose-dependent inhibition
- β-catenin protein levels (Myc; 10–50–100 μM): reduced only at the highest dose
- EC50 (SW620 cells): 37 µM
- tumor volume vs control group (saline) (HCT116 xenograft; [2]): significantly smaller
- tumor weight vs control group (saline) (HCT116 xenograft; [2]): significantly smaller
- expression of angiogenesis marker CD31 in tumor tissues (HCT116 xenograft; [3]): significantly lower expression
- expression of proliferation factor Ki67 in tumor tissues (HCT116 xenograft; [3]): significantly lower expression

Source: paper PMC10353061 (ACS Pharmacology & Translational Science, 2023)
